# Measured values from paper PMC5062570 (Nature Communications, 2016).
# Where “and” joins values, the source holds several entries; their conditions need not be identical. Equal values may be shown once. Entries after “also recorded” stand apart in the source; their conditions may differ.
# Legend:
# CatD [1] = conditions: cited from earlier work
# [2] = tested on: mRNA levels (CTSD, CTSB, CTSF, BACE1, GBA, TFEB) in ARPE-19 cells; assay: qRT-PCR of inhibitor-treated ARPE-19 cells; type: cell-based, human; conditions: 7 days
# CatD [3] = molecular target: T1, CatD (Homo sapiens, UniProt P07339); assay: CatD cellular assay (competition of PF-7802 photolabelling in live ARPE-19 cells); type: cell-based; parameters: host or cells: ARPE-19; conditions: for CatD potency increase in live cells: CatD enzyme IC50 versus CatD cellular IC50; for IC50: live ARPE-19 cells, PF-7802 photoprobe 100 nM, 30 min
# Target sequence in this assay (P07339 169-412 limits assumed): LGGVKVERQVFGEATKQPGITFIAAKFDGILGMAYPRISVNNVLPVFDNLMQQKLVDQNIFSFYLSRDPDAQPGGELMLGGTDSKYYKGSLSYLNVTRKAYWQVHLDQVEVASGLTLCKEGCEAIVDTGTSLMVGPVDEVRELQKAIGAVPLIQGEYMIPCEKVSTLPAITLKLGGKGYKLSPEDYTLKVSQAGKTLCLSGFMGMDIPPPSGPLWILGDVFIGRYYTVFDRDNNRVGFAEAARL
# Target sequence in this assay (P07339 65-162 limits assumed): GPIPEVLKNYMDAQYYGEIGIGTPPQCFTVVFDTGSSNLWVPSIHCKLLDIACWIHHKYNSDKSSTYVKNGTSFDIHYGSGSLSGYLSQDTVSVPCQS
# [4] = tested on: aspartyl proteases (BACE2, cathepsin D, cathepsin E, pepsin and renin); conditions: assays with purified proteins; cited from earlier work
# [5] = tested on: retinal pigment epithelium (RPE); assay: Exploratory toxicology, ocular toxicity by retinal histology in rats; type: in vivo; conditions: 14 days; for Female ocular toxicity incidence (positive or negative animals / total evaluated) / Female ocular toxicity outcome / Male ocular toxicity incidence (positive or negative animals / total evaluated) / Male ocular toxicity outcome: rat; for Retinal finding by fluorescence microscopy: rats
# CatE = molecular target: T2, CatE (Homo sapiens, UniProt P14091); assay: CatE purified enzyme fluorescence polarization assay; type: biochemical
# T2 construct: purchased Creative BioMart CTSE-255H
# T2 sequence (P14091 54-396): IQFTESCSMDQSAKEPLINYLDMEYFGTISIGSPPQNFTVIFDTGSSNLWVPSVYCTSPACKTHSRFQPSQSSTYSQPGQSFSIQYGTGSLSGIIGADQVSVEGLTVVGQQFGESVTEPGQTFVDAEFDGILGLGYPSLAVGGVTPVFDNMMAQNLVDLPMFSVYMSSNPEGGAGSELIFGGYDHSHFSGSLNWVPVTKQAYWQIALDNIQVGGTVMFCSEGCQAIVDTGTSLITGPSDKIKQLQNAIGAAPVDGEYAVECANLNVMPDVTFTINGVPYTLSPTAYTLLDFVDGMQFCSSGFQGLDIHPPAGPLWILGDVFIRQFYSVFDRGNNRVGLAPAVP
# Protocol: (§1) Purified enzyme inhibition of BACE1, BACE2, CatD and CatE was determined using fluorescence polarization (FP) assays. Briefly, purified enzymes were treated with test compounds (1% DMSO, 37 °C) in the presence of synthetic peptide substrates (150 nM) in 30 μl total volume of NaOAc buffer (100 mM, pH 4.5, 0.0001% Tween-20) in a 384-well plate. After incubation, reactions were stopped and substrate captured by the addition of 1.5 μM streptavidin, and FP measured with an EnVision plate reader (PerkinElmer, excitation 485 nm, emission 530 nm). […] BACE2 activity was assessed with 0.5 nM recombinant BACE2 (R&D Systems 4097-AS) and the same synthetic substrate used for BACE1, with a 1 h incubation time. […] CatE activity was assessed with 1.0 nM recombinant CatE (Creative BioMart CTSE-255H) and the same synthetic substrate used for CatD, with a 1.5 h incubation time.
# CatD [6] = molecular target: T1, CatD; assay: CatD purified enzyme fluorescence polarization assay; type: biochemical; parameters: final maturation into a non-covalently associated heavy chain and light chain; purchased Sigma C8696; host or cells: human liver; conditions: purified human enzyme, fluorescence polarization, substrate-based
# Protocol: as §1
# Target sequence in this assay (P07339 65-162 limits assumed): as the sequence (P07339 65-162 limits assumed) above
# Target sequence in this assay (P07339 169-412 limits assumed): as the sequence (P07339 169-412 limits assumed) above
# [7] = tested on: retinal pigment epithelium (RPE); assay: Exploratory toxicology, ocular toxicity by retinal histology in dogs; type: in vivo; conditions: 14 days; for Female ocular toxicity incidence (positive or negative animals / total evaluated) / Female ocular toxicity outcome / Male ocular toxicity incidence (positive or negative animals / total evaluated) / Male ocular toxicity outcome: dog; for Retinal finding by fluorescence microscopy: dogs
# Protocol: Naive […] beagle dogs (Canis lupus familiaris, >8 months old, n=1 male and n=1 female per group) received daily oral dosing of test compounds or vehicle for 14 days at the indicated concentrations. The doses were prepared in a solution of 0.5% methylcellulose and hydroxypropyl methylcellulose acetate succinate (high fine grade) and delivered in a volume of 5 ml kg^−1 per day. Blood samples for bioanalytical analysis were collected in K2EDTA tubes via jugular vessel. Plasma was isolated after centrifugation and stored at –20 °C before analysis. Animals were killed via intravenous administration of barbiturate followed by exsanguination ∼3 h after the final dose on day 15.
smiles,measurement,setting,value
Cc1cc([C@H]2C[C@H]3[C@@H](C)SC(N)=N[C@@]3(c3ccc(F)cc3F)CO2)on1 [PF-9283],selectivity ratio,CatD [1],210
same,mRNA level changes (qRT-PCR),[2],did not display changes in mRNA levels; also recorded: no changes in CatD mRNA levels
same,CatD potency difference between cell-free enzyme and cellular assays,CatD [3],~86 fold
same,CatD potency increase in live cells,CatD [3],86 x
same,BACE1 selectivity over CatD in cells,CatD [3]; cellular inhibition of BACE1 cleavage of APP versus inhibition of CatD labelling by PF-7802,23 fold
same,IC50,CatD [3],0.14 µM and < 0.3 µM
same,Selectivity for BACE1 over cathepsins D and E,[4],more than 200 fold
same,Female ocular toxicity incidence (positive or negative animals / total evaluated),[5]; 30 mg kg-1 once daily,1/3
same,Female ocular toxicity outcome,[5]; 30 mg kg-1 once daily,Pos
same,Male ocular toxicity incidence (positive or negative animals / total evaluated),[5]; 30 mg kg-1 once daily,3/3
same,Male ocular toxicity outcome,[5]; 30 mg kg-1 once daily,Neg (negative (neg) if there was no ocular abnormality observed)
same,Retinal finding by fluorescence microscopy,[5]; 80 mg kg-1 daily,accumulation of autofluorescent granules (AFG) in the RPE; also recorded: accumulated autofluorescent granules are visible
same,IC50,CatE,24 µM
same,IC50,CatD [6],12 µM
same,Female ocular toxicity incidence (positive or negative animals / total evaluated),[7]; 3 mg kg-1 once daily,1/1
same,Female ocular toxicity outcome,[7]; 3 mg kg-1 once daily,Neg (negative (neg) if there was no ocular abnormality observed)
same,Male ocular toxicity incidence (positive or negative animals / total evaluated),[7]; 3 mg kg-1 once daily,1/1
same,Male ocular toxicity outcome,[7]; 3 mg kg-1 once daily,Neg (negative (neg) if there was no ocular abnormality observed)
same,Female ocular toxicity incidence (positive or negative animals / total evaluated),[7]; 9 mg kg-1 once daily,1/1
same,Female ocular toxicity outcome,[7]; 9 mg kg-1 once daily,Neg (negative (neg) if there was no ocular abnormality observed)
same,Male ocular toxicity incidence (positive or negative animals / total evaluated),[7]; 9 mg kg-1 once daily,1/1
same,Male ocular toxicity outcome,[7]; 9 mg kg-1 once daily,Pos
same,Retinal finding by fluorescence microscopy,[7]; 3 mg kg-1 daily,not after 3 mg kg-1 dosing
same,Retinal finding by fluorescence microscopy,[7]; 9 mg kg-1 daily,accumulated autofluorescent
Cc1cc([C@H]2C[C@H]3[C@@H](CF)SC(N)=N[C@@]3(c3ccc(F)cc3F)CO2)on1 [PF-3195],CatD potency increase in live cells,CatD [3],17 x
same,IC50,CatD [3],0.54 µM
same,Female ocular toxicity incidence (positive or negative animals / total evaluated),[5]; 15 mg kg-1 once daily,3/3
same,Female ocular toxicity outcome,[5]; 15 mg kg-1 once daily,Neg (negative (neg) if there was no ocular abnormality observed)
same,Male ocular toxicity incidence (positive or negative animals / total evaluated),[5]; 15 mg kg-1 once daily,3/3
same,Male ocular toxicity outcome,[5]; 15 mg kg-1 once daily,Neg (negative (neg) if there was no ocular abnormality observed)
same,Female ocular toxicity incidence (positive or negative animals / total evaluated),[5]; 40 mg kg-1 once daily,3/3
same,Female ocular toxicity outcome,[5]; 40 mg kg-1 once daily,Neg (negative (neg) if there was no ocular abnormality observed)
same,Male ocular toxicity incidence (positive or negative animals / total evaluated),[5]; 40 mg kg-1 once daily,3/3
same,Male ocular toxicity outcome,[5]; 40 mg kg-1 once daily,Neg (negative (neg) if there was no ocular abnormality observed)
same,Female ocular toxicity incidence (positive or negative animals / total evaluated),[5]; 90 mg kg-1 once daily,2/3
same,Female ocular toxicity outcome,[5]; 90 mg kg-1 once daily,Pos
same,Male ocular toxicity incidence (positive or negative animals / total evaluated),[5]; 90 mg kg-1 once daily,1/3
same,Male ocular toxicity outcome,[5]; 90 mg kg-1 once daily,Pos
same,Female ocular toxicity incidence (positive or negative animals / total evaluated),[5]; 200 mg kg-1 once daily,2/3
same,Female ocular toxicity outcome,[5]; 200 mg kg-1 once daily,Pos
same,Male ocular toxicity incidence (positive or negative animals / total evaluated),[5]; 200 mg kg-1 once daily,3/3
same,Male ocular toxicity outcome,[5]; 200 mg kg-1 once daily,Pos
same,Retinal finding by fluorescence microscopy,[5]; 15 mg kg-1 or 40 mg kg-1 daily,no intermediate phenotype
same,Retinal finding by fluorescence microscopy,[5]; 90 mg kg-1 or 200 mg kg-1 daily,accumulated autofluorescent granules
same,IC50,CatD [6],9 µM
